These results are taken from PubChem BioAssay (NCI).

Some test systems named below: A498 renal; CAKI-1 renal; COLO 205 colon; DU-145 prostate; HOP-92 NSCLC; HS 578T breast; MOLT-4 leukemia; OVCAR-3 ovarian; OVCAR-8 ovarian; SK-OV-3 ovarian; UO-31 renal.
Common to all, as to assay: NCI tumour cell line growth inhibition, 48 h

Molecules are shown by their SMILES.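 Exposure lasted 48 hours, with cells grown in 96-well plates and compounds tested at five concentrations. TGI marks complete inhibition of growth.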

On to `Oc1c(OCc2nnc(CCCCCCCCc3nnc(COc4ccc5ccccc5c4O)n3Nc3ccccc3)n2Nc2ccccc2)ccc2ccccc12`, for which the TGI in the test on A498 renal turned out to be 34.3 µM; in the test on CAKI-1 renal, 13.8 µM; with COLO 205 colon it was 1.32 µM; in the test with DU-145 prostate, 31.9 µM; in the test with HOP-92 NSCLC, 32.3 µM; in the test with HS 578T breast, 22.2 µM. In addition, the TGI with MOLT-4 leukemia was more than 100 µM; with OVCAR-3 ovarian, 30.6 µM; with OVCAR-8 ovarian, 28.3 µM; in the test with SK-OV-3 ovarian it was 27.3 µM; in the test on UO-31 renal, 19.6 µM.

Take `O=[N+]([O-])/C(C(Cl)=C(Cl)Cl)=C1\Nc2ccccc2O1`: the TGI in the test on A498 renal was more than 100 µM; in the test on CAKI-1 renal, more than 100 µM; in the test on COLO 205 colon, more than 100 µM; with DU-145 prostate, more than 100 µM; with HOP-92 NSCLC, 62.4 µM; in the test with HS 578T breast, more than 100 µM. The TGI in the test with MOLT-4 leukemia is 77.9 µM; with OVCAR-3 ovarian it was 63.6 µM; with OVCAR-8 ovarian, 63.9 µM; in the test on SK-OV-3 ovarian, more than 100 µM; with UO-31 renal it was 30.6 µM.

Take `O=C(Cc1ccc(Cl)c(Cl)c1)NCCCN1CCN(CCCN2CCCCC2)CC1`: the TGI was 31 µM in the test on A498 renal; 41.3 µM in the test with CAKI-1 renal; 29.8 µM with COLO 205 colon; more than 100 µM with DU-145 prostate; 24.8 µM with HOP-92 NSCLC; more than 100 µM in the test on HS 578T breast. Further, the TGI is 28.8 µM in the test on MOLT-4 leukemia; 80.7 µM with OVCAR-3 ovarian; more than 100 µM in the test on OVCAR-8 ovarian; 40.8 µM in the test on SK-OV-3 ovarian; 3.63 µM with UO-31 renal.

For the compound `[N-]=N[N+]#I1OC(C(F)(F)F)(C(F)(F)F)c2ccccc21`, the TGI came out at 31.8 µM in the test on A498 renal; 20.9 µM in the test with CAKI-1 renal; 27 µM with COLO 205 colon; 38 µM in the test on DU-145 prostate; 27 µM with HOP-92 NSCLC; 37.3 µM in the test on HS 578T breast. Moreover, the TGI with MOLT-4 leukemia turned out to be 59.2 µM; in the test with OVCAR-3 ovarian, 27.8 µM; in the test with OVCAR-8 ovarian, 34.5 µM; in the test with SK-OV-3 ovarian it was 58.8 µM; with UO-31 renal, 23.7 µM.

For `O=C1CC(NC(=O)C(F)(F)F)c2c(Br)sc(N3CCC(c4ccccc4)CC3)c21` (configuration not stated), the TGI with A498 renal is more than 100 µM; in the test with CAKI-1 renal, 43.8 µM; in the test on COLO 205 colon, more than 100 µM; with DU-145 prostate, more than 100 µM; in the test on HOP-92 NSCLC, 41.1 µM; in the test on HS 578T breast, 79.6 µM. The TGI in the test with MOLT-4 leukemia was more than 100 µM; with OVCAR-3 ovarian, 95.8 µM; with OVCAR-8 ovarian it was more than 100 µM; in the test on SK-OV-3 ovarian it was more than 100 µM; in the test on UO-31 renal it was more than 100 µM.

Consider `CCOC(=O)CC(C)C(C#N)(OP1(=O)OC(c2ccccc2)C(C)N1C)c1ccccc1` (configuration not stated), for which the TGI in the test with A498 renal is more than 100 µM; with CAKI-1 renal, more than 100 µM; in the test on COLO 205 colon it was 36.6 µM; with DU-145 prostate, more than 100 µM; in the test on HOP-92 NSCLC, more than 100 µM; with HS 578T breast, more than 100 µM. Besides, the TGI with MOLT-4 leukemia was 73.1 µM; with OVCAR-3 ovarian it was more than 100 µM; in the test on OVCAR-8 ovarian it was more than 100 µM; in the test with SK-OV-3 ovarian it was more than 100 µM; in the test on UO-31 renal, more than 100 µM.

As to `COC(=O)[C@]1(C)CCCn2c(=O)n(-c3ccccc3)c(=O)n21`, the TGI with A498 renal, in the test with CAKI-1 renal, in the test with COLO 205 colon, in the test with DU-145 prostate, in the test with HOP-92 NSCLC and with HS 578T breast was more than 100 µM throughout. The TGI with MOLT-4 leukemia, in the test with OVCAR-3 ovarian, with OVCAR-8 ovarian, in the test with SK-OV-3 ovarian and with UO-31 renal was more than 100 µM in each case.
